Assay results reported in patent publication US20250084112A1, “Chemical Compounds Useful for Inhibiting Nav1.8 Voltage-Gated Sodium Channels and Treating Nav1.8 Mediated Diseases” (GlaxoSmithKline Intellectual Property Development Limited, priority 2021, published 2025).
In brackets after ≈: the same amount, converted by molar mass. Where two headings read alike, the source gives them in different places.

Key:
[1] = Kinetic solubility measurement using Charged Aerosol Detector (CAD); assay type: physicochemical; conditions: phosphate buffered saline (PBS) pH 7.4, aqueous buffer, PBS pH 7.4, 1 hour at room temperature, from DMSO stock
Description: Kinetic solubility measurement using Charged Aerosol Detector (CAD). The aqueous kinetic solubility at pH 7.4 was determined by measuring the concentration of solute in solution after precipitation from DMSO stock solution. The DMSO stock solution was diluted 20-fold with phosphate buffered saline (PBS) pH 7.4 and the solubility of the compound was measured after 1 hour equilibration at room temperature by HPLC-CAD. Calibration standards of Ketoconazole and Primidone were prepared by serial dilutions in DMSO at concentrations ranging from 0.016 to 4.5 mg/ml to produce the calibration curve used to determine the solubility of the compounds as previously described in Max W. Robinson et al, Use of Calculated Physicochemical Properties to Enhance Quantitative Response When Using Charged Aerosol Detection, Anal. Chem., 2017, 89 (3), pp 1772-1777, which is herein incorporated by reference.

human Nav1.8 = human Nav1.8 (Homo sapiens (Human), UniProt Q9Y5Y9); assay: QPatch 48 HTX electrophysiology, half inactivation state (V1/2) voltage protocol in HEK293-Nav1.8; assay type: cell-based; conditions: HEK293-Nav1.8, QPatch V1/2 protocol, P2 current; average if more than one run
Chain of human Nav1.8 (Q9Y5Y9 whole entry): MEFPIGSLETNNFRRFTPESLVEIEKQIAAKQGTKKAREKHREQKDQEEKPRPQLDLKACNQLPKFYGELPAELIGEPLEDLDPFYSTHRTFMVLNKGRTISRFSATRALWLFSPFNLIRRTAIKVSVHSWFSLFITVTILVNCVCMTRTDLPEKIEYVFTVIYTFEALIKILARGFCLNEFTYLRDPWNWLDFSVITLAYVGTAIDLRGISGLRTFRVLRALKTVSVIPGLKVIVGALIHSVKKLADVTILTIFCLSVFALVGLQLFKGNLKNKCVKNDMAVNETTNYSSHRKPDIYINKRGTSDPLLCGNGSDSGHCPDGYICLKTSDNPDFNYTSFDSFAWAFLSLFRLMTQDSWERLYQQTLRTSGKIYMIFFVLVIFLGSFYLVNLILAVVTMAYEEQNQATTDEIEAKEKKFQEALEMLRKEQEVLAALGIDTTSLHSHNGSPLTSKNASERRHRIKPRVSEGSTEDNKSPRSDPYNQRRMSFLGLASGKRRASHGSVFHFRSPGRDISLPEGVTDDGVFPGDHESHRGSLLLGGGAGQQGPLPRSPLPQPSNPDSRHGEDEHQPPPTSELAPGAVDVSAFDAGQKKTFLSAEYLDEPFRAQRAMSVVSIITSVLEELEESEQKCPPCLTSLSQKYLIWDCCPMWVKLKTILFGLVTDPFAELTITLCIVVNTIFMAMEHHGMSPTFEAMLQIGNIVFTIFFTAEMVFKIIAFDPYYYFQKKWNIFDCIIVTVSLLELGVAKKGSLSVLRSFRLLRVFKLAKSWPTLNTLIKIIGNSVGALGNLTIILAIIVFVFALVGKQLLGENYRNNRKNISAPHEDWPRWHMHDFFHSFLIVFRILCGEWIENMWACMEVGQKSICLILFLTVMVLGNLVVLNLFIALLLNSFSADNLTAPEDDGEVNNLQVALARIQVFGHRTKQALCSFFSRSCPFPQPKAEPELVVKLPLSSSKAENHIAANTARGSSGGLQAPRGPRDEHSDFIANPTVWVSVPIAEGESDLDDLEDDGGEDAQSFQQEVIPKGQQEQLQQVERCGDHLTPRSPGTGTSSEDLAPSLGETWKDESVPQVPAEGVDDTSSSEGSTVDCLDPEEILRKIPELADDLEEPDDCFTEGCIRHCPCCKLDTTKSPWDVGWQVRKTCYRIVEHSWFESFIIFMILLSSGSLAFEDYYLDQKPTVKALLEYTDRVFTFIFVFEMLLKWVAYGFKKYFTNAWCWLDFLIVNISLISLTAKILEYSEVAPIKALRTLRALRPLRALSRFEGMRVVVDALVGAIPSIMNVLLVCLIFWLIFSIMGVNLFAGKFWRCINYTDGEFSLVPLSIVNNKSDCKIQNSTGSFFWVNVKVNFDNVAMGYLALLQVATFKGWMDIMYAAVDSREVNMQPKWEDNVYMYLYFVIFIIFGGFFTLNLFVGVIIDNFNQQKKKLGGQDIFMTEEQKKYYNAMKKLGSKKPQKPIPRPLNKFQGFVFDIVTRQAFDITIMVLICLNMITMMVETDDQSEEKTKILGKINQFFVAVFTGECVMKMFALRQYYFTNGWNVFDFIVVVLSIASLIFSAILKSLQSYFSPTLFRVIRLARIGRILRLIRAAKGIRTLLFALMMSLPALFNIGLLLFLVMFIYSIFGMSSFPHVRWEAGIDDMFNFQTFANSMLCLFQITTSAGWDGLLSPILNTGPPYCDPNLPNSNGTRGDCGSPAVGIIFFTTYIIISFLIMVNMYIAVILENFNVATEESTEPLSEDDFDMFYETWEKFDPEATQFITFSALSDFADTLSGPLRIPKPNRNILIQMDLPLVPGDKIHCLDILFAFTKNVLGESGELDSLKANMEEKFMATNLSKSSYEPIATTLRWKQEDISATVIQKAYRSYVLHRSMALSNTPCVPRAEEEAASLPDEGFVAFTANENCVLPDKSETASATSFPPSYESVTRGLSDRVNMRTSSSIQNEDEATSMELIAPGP
Description: Human embryonic kidney 293 cells (HEK293) expressing human Nav1.8, human Navβ1 and human TREK1 (HEK293-Nav1.8) were grown at 37° C., 5% CO2 in 150 cm^2 flasks. HEK293-Nav1.8 were passaged every 2-3 days into T175 cell culture flasks when confluency reached 80-90%.
Pharmacological assessment of the compounds of the invention was performed using HEK293-Nav1.8 in combination with an assay developed on the QPatch 48 HTX electrophysiological system. HEK293-Nav1.8 were prepared on the day of use by removing culture media, washing in DPBS, adding Accutase (2 ml to cover the surface, aspirate 1 ml then 1.5 min at 37° C.) followed by addition of CHO-SFM II to stop the enzyme digestion and in order to obtain a suspension of 3×10^6 cell/mL.
Compound was prepared in an extracellular solution of the following composition: NaCl (145 mM), KCl (4 mM), CaCl2 (2 mM), MgCl2 (2 mM), HEPES (1 mM), Glucose (10 mM), pH 7.4 with NaOH Osmolality 300 mOsM/L. The intracellular solution was used of the following composition: CsF (115 mM), CsCl (20 mM), NaCl (5 mM), EGTA (10 mM), HEPES (10 mM), Sucrose (20 mM), pH 7.2 with CsOH Osmolality 310 mOsm/L.
Utilizing the voltage-clamp mode in the QPatch 48 HTX system a half inactivation state voltage protocol (V1/2) was used to determine pharmacological activity of compounds of the invention at Nav1.8 ion channels. A V1/2 protocol was utilized with the following voltage steps: a holding voltage of −100 mV was established followed by a 20 ms voltage step to 0 mV (P1), followed by an inactivating voltage step at −46 mV for 8 seconds, followed by a step to −100 mV for 20 ms, before a 20 ms step to 0 mV (P2) before returning to the holding voltage of −100 mV. This voltage protocol was repeated at a frequency of 0.07 Hz., current magnitude was quantified at the P2 step throughout the recording. Inhibition of the measured current amplitude with the compounds of the invention was analyzed by fitting a 6-8 point dose-response curve allowing determination of the fifty percent inhibition concentration (IC50). Within the QPatch HTX software, P2 current was normalized according to measurements made at baseline after compound and after positive reference compound and fit to the following equation: […]
To assess current run-down over the course of the experiment vehicle-only wells were utilized and the normalized current with vehicle-only (n.IVEH) was determined. To correct the compound response for run-down, the currents were corrected according the following formula: […]
Compounds of the invention and the corresponding parent compounds (see Table 1A for structures) were tested for activity against Nav1.8 sodium channels in the above assay in one or more experimental runs and the results are shown in Table 1 below. Potency of the compounds of the invention is reported as a pIC50 value. The pIC50 value is the negative log of the IC50 value, wherein the IC50 value is the half maximal inhibitory concentration measured in molar (M). Potency of the compounds of the invention is compared to the potency of the parent compound. For compounds tested in more than one experimental run, the pIC50 value is reported as an average.

[2] = Rat IV/PO pharmacokinetic study (prodrug to parent conversion); assay type: in vivo, Han Wistar rats
Description: An in vivo rat pharmacokinetic study was conducted to determine whether the prodrug compounds of the invention are converted to the respective parent compound upon administration. The rat pharmacokinetic study was conducted with a crossover design on two study days with a one-day recovery period between each study day. Three male, dual catheterized (femoral vein and carotid artery) Han Wistar rats were used for the study. Each rat was also implanted with a gastric catheter for oral dose administration. Rats were dosed at 1 mg/kg by a 60 minute intravenous (IV) infusion (femoral vein cannula), then subsequently oral dosed at 2 mg/kg via the gastric cannula, with 48 hours between dosing sessions. Dose solutions of the compound of Example 3 were prepared in 20% Cavitron/5% DMSO/75% water (IV) and in 6% Cavitron/5% DMSO/89% water (PO) without pH adjustment. The dose solutions were filtered using a 0.22 μ filter. The pH of the final dosing solutions was 6.0.
During the intravenous study leg, blood samples were collected from the carotid artery catheter at target times of 15, 30, 60 (end of infusion), 65, 75, 90, 120, 240, 360, 480, 720, and 1440 minutes following the initiation of the intravenous infusion of the compound of Example 3. During the oral study leg, blood samples were collected prior to dosing and at target times of 15, 30, 60, 90, 120, 180, 240, 360, 480, 720, and 1440 minutes following oral administration. Blood samples, 100 μL, were mixed with 100 μL phosphatase inhibitor, a 50 μL aliquot of the blood and inhibitor mixture was transferred to a non-heparinized tube and stored at approximately −80° C. until analyzed. The concentrations in the filtered dose solutions were confirmed by preparing stepwise dilutions first into 50% aqueous acetonitrile with 0.1% formic acid then into heparinized male Wistar Han blood:inhibitor to achieve determined nominal concentrations. Triplicate 50 μL aliquots were removed and were frozen and stored at approximately […] until analyzed by LC-MS/MS as described below.
LC-MS/MS was used to quantify the compound of Example 3 and the corresponding parent compound of Example 3A in the biological samples generated in the above described in vivo study. Samples were prepared by protein precipitation followed by LC-MS/MS analysis employing positive-mode ionization against a set of calibration standards for the compounds prepared in the same matrix. Pharmacokinetic parameters for the study was derived from the concentration versus time profiles. Key pharmacokinetic parameters such as AUC0-∞ (extrapolated area under the blood concentration-time curve), AUC0-t (area under the blood concentration-time curve to the last time point with quantifiable drug), Cmax (maximum concentration), Tmax (time Cmax is achieved), CL (systemic blood clearance), Vdss (steady-state volume of distribution), MRT (mean residence time), and t1/2(half-life) were determined for the compound of Example 3. The key pharmacokinetic parameters such as AUC0-∞, AUC0-t, Cmax, Tmax, MRT, and t1/2 (half-life) were determined for the parent compound Example 3A. Descriptive statistical data of pharmacokinetic parameters were calculated, including the mean and standard deviation (SD) using Microsoft Excel.
The data are shown below in Tables 3A and 3B. Data are reported as mean±SD (N=3).

[3] = average for Examples 1 and 3, one run for 2 and 4, read-out: CAD solubility (Prodrug Compounds of the Invention)
[4] = male, Han Wistar, whole blood, prodrug in blood, Example 3 1 mg/kg 60 minute intravenous infusion, mean±SD (N=3)
[5] = average of multiple runs, read-out: CAD solubility (Parent Compounds)

SMILES	solubility at 1 h [1, 3]	[Nav1.8] pIC50 (Compounds of the Invention) (human Nav1.8)	solubility at 1 h [1, 5]	further results
Cc1cc(F)ccc1N1CN(c2ccc(=O)n(COP(=O)(O)O)c2C)C(=O)c2cc(Cl)ccc21 [Example 3, (5-(6-chloro-1-(4-fluoro-2-methylphenyl)-4-oxo-1,4-dihydroquinazolin-3(2H)-yl)-6-methyl-2-oxopyridin-1(2H)-yl)methyl dihydrogen phosphate]	102 µg/mL	6.9		AUC(0-inf) [2, 4]: 250 ± 30 ng·h/mL; AUC(0-t) [2, 4]: 240 ± 40 ng·h/mL; Cmax [2, 4]: 260 ± 24 ng/mL; clearance ([2]; male, Han Wistar, whole blood, prodrug, systemic blood clearance, Example 3 1 mg/kg 60 minute intravenous infusion, mean±SD (N=3)): 58 ± 9 mL/min/kg; quantifiable concentrations following oral administration ([2]; prodrug in blood, Example 3 2 mg/kg oral via gastric cannula, text runs over cells r6-r10): There were no
Cc1cc(F)ccc1N1CN(c2ccc(=O)n(COP(=O)(O)O)c2C)C(=O)c2cc(C(F)(F)F)ccc21 [Example 1, (5-(1-(4-Fluoro-2-methylphenyl)-4-oxo-6-(trifluoromethyl)-1,4-dihydroquinazolin-3(2H)-yl)-6-methyl-2-oxopyridin-1(2H)-yl)methyl dihydrogen phosphate]	> 260 µg/mL	6.8		
Cc1cc(F)ccc1N1CN(c2ccc(=O)n(COP(=O)(O)O)c2C)C(=O)c2ccc(C(F)(F)F)cc21 [Example 2, (5-(1-(4-fluoro-2-methylphenyl)-4-oxo-7-(trifluoromethyl)-1,4-dihydroquinazolin-3(2H)-yl)-6-methyl-2-oxopyridin-1(2H)-yl)methyl dihydrogen phosphate]	> 193 µg/mL	6.6		
Cc1cc(OC(F)(F)F)ccc1N1CN(c2ccc(=O)n(COP(=O)(O)O)c2C)C(=O)c2cc(C(F)(F)F)cnc21 [Example 4, (6-methyl-5-(1-(2-methyl-4-(trifluoromethoxy)phenyl)-4-oxo-6-(trifluoromethyl)-1,4-dihydropyrido[2,3-d]pyrimidin-3(2H)-yl)-2-oxopyridin-1(2H)-yl)methyl dihydrogen phosphate]	181 µg/mL	6.1		
Cc1cc(F)ccc1N1CN(c2ccc(=O)[nH]c2C)C(=O)c2ccc(C(F)(F)F)cc21 [Parent Compound 2A, 1-(4-fluoro-2-methylphenyl)-3-(2-methyl-6-oxo-1,6-dihydropyridin-3-yl)-7-(trifluoromethyl)-2,3-dihydroquinazolin-4(1H)-one]			51 µg/mL (≈ 118 µM)	
Cc1cc(F)ccc1N1CN(c2ccc(=O)[nH]c2C)C(=O)c2cc(Cl)ccc21 [Parent Compound 3A, 6-chloro-1-(4-fluoro-2-methylphenyl)-3-(2-methyl-6-oxo-1,6-dihydropyridin-3-yl)-2,3-dihydroquinazolin-4(1H)-one]			54 µg/mL (≈ 136 µM)	
Cc1cc(F)ccc1N1CN(c2ccc(=O)[nH]c2C)C(=O)c2cc(C(F)(F)F)ccc21 [Parent Compound 1A, 1-(4-fluoro-2-methylphenyl)-3-(2-methyl-6-oxo-1,6-dihydropyridin-3-yl)-6-(trifluoromethyl)-2,3-dihydroquinazolin-4(1H)-one]			48 µg/mL (≈ 111 µM)	[Nav1.8] pIC50 (Parent Compounds) (human Nav1.8): 8
Cc1cc(OC(F)(F)F)ccc1N1CN(c2ccc(=O)[nH]c2C)C(=O)c2cc(C(F)(F)F)cnc21 [Parent Compound 4A, 1-(2-methyl-4-(trifluoromethoxy)phenyl)-3-(2-methyl-6-oxo-1,6-dihydropyridin-3-yl)-6-(trifluoromethyl)-2,3-dihydropyrido[2,3-d]pyrimidin-4(1H)-one]			87 µg/mL (≈ 175 µM)	[Nav1.8] pIC50 (Parent Compounds) (human Nav1.8): 7.5
